Measurements reported in patent US8541576B2, “Substituted pyrazolo-quinazoline derivatives as kinase inhibitors” (Nerviano Medical Sciences SRL, priority 2010, dated 2013).
pIC50: −log10 of the molar value.

Assays:
[1] = system: MV-4-11 (biphenotypic B myelomonocytic leukemia) cells; assay: In vitro cell proliferation assay (CellTiter-Glo); format: cell-based; details: Homo sapiens, MV4-11, antiproliferative activity, 72 hours
Experimental: In Vitro Cell Proliferation Assay:
MV-4-11 (biphenotypic B myelomonocytic leukemia) cells (1250 cells/well) were seeded in white 384 well-plates in complete medium (RPMI 1640 or EMEM plus 10% Fetal bovine serum) and treated with compounds dissolved in 0.1% DMSO, 24 h after seeding. The cells were incubated at 37° C. and 5% CO2 and after 72 hours the plates were processed using CellTiter-Glo® assay (Promega) following the manufacturer's instruction. CellTiter-Glo® is a homogenous method based on the quantification of the ATP present, an indicator of metabolically active cells. ATP is quantified using a system based on luciferase and D-luciferin resulting into light generation. The luminescent signal is proportional to the number of cells present in culture.
Briefly 25 μl/well reagent solution was added to each wells and after 5 minutes shacking microplates were red by Envision® (PerkinElmer) luminometer. The luminescent signal was proportional to the number of cells present in culture.
Inhibitory activity was evaluated comparing treated versus control data using Assay Explorer (MDL) program. IC50 was calculated using sigmoidal interpolation curve.

[2] = biological target: T1, Full-length human PIM-2 (Homo sapiens, UniProt Q9P1W9); assay: PIM-2 kinase inhibition assay: Dowex technique; format: biochemical; details: ATP 4 μM, enzyme 1.5 nM, Aktide 5 μM
T1 construct: Full-length human PIM-2 was expressed and purified; made in house
Experimental: Method for PIM-2 Kinase Inhibition Assay: Dowex Technique
The buffer for PIM-2 assay was composed of HEPES 50 mM, at pH 7.5, with 1 mM MgCl2, 1 mM DTT, 3 μM Na3VO4, and 0.2 mg/ml BSA
Full-length human PIM-2 was expressed and purified as described in Fedorov O, et al. (2007) PNAS 104, 51, 20523-28.
Assay Conditions (Final Concentrations):
Enzyme concentration=1.5 nM
Aktide substrate (Chemical Abstract Service Registry Number 324029-01-8)=5 μM
See above: same procedure as described for PIM-1.

[3] = biological target: T2, Full-length human PIM-1 (Homo sapiens, UniProt P11309); assay: Biochemical assay for inhibitors of PIM-1 kinase activity (trans-phosphorylation, Dowex resin, 33P-ATP); details: ATP 200 μM, enzyme 1 nM, Aktide 25 μM
T2 construct: Full-length human PIM-1 was expressed and purified; made in house
Experimental: Biochemical assay for inhibitors of PIM-1 kinase activity
The inhibitory activity of putative kinase inhibitors and the potency of selected compounds were determined using a trans-phosphorylation assay.
Specific peptide or protein substrates are trans-phosphorylated by their specific ser-thr or tyr kinase in the presence of ATP traced with ^33P-γ-ATP, and in the presence of their own optimal buffer and cofactors.
At the end of the phosphorylation reaction, more than 98% unlabeled ATP and radioactive ATP is captured by an excess of the ion exchange Dowex® resin; the resin then settles down to the bottom of the reaction plate by gravity.
Supernatant is subsequently withdrawn and transferred into a counting plate, then evaluated by β-counting.
The buffer for PIM-1 assay was composed of HEPES 50 mM, at pH 7.5, with 10 mM MgCl2, 1 mM DTT, 3 μM NaVO3, and 0.2 mg/ml BSA
Full-length human PIM-1 was expressed and purified as described in Bullock A N, et al., J. Biol. Chem. 2005, 280, 41675-82.
1.7 μM PIM1 was incubated 1 hour RT at 28° C. in the presence of 125 μM ATP
ATP concentration: 200 μM
Enzyme concentration: 1 nM
Substrate concentration Aktide (Chemical Abstract Service Registry Number 324029-01-8): 25 μM
The test mix consisted of:
1) 3× Enzyme mix (done in Kinase Buffer 3×), 5 μL/well
2) 3× substrate and ATP mix (done in ddH2O), together with ^33P-γ-ATP, 5 μL/well
3) 3× test compounds (diluted into ddH2O—3% DMSO)-5 μL/well
For IC50 determination, test compounds are received as a 1 mM solution in 100% DMSO and distributed into 96-well plates: compounds are then plated into the first column of a new 96-well plate (A1 to G1), 100 μl/well.
An automated station (Biomek FX®, Beckman) is used for serial dilutions, producing 1:3 dilutions in 100% DMSO, from line A1 to A10, for all the compounds in the column. Moreover, 4-5 copies of daughter plates are prepared by reformatting 5 μL of this first set of 100% DMSO dilution plates into 384-deep well plates: one copy of these serial dilution plates with the test compounds is thawed on the day of study, reconstituted at the working concentration (3-fold the final concentration) with 162 μL/well of water and used for IC50 determination assays. In a standard experiment, the highest concentration (3×) of compounds is typically 30 μM, while the lowest one is typically 1.5 nM.
Each 384-well plate generates at least one curve of the standard inhibitor staurosporine and reference wells (total enzyme activity vs. no enzymatic activity) for evaluation of Z′ and signal to background (S/B) ratio.
384-well plates, V bottom (test plates) are prepared with 5 μl of compound diluted as previously described (3×) and then placed onto a PlateTrak® 12 robotized station (Perkin Elmer; the robot has one 384-tip pipetting head for assay start, plus one 96-tip head for dispensing resin) together with one reservoir for Enzyme mix (3×) and one for ATP mix (3×).
Data are analyzed by an internally customized version of the “Assay Explorer®” SW package, which provides sigmoidal fitting of the ten-dilution curves for IC50 determination in secondary assay/hit confirmation routines.

T2 sequence (P11309 whole entry): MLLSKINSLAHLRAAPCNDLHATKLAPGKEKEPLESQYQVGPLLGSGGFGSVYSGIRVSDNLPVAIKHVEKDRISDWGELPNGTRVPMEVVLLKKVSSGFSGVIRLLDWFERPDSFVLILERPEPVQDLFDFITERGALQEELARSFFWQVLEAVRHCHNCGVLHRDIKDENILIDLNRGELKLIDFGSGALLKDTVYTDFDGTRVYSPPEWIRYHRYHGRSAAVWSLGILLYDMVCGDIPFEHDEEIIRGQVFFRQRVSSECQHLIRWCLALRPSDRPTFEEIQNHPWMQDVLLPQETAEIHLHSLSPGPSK
T1 sequence (Q9P1W9 whole entry): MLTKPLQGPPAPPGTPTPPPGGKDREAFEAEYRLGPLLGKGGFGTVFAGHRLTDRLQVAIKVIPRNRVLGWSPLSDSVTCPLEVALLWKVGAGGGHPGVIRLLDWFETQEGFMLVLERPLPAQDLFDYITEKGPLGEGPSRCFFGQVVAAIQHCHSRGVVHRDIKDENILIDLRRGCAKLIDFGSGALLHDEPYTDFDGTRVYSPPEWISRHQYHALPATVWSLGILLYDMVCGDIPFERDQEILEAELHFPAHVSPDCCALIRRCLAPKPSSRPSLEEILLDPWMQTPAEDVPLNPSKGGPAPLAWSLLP

| SMILES | pIC50 [1] | pIC50 [2] | pIC50 [3] |
| --- | --- | --- | --- |
| CSc1ncc2ccc3c(C(N)=O)nn(CCO)c3c2n1 [Compound 1, 1-(2-hydroxyethyl)-8-(methylsulfanyl)-1H-pyrazolo[4,3-h]quinazoline-3-carboxamide] | 6.00 | 6.66 | 7.30 |
| CNC(=O)c1nn(C(C)(C)C)c2c1ccc1cnc(SC)nc12 [Compound 7, 1-tert-butyl-N-methyl-8-(methylsulfanyl)-1H-pyrazolo[4,3-h]quinazoline-3-carboxamide] | 5.75 | 6.81 | 7.39 |
| CSc1ncc2ccc3c(C(N)=O)nn(CCN)c3c2n1 [Compound 15, 1-(2-aminoethyl)-8-(methylsulfanyl)-1H-pyrazolo[4,3-h]quinazoline-3-carboxamide] | 5.85 | 6.55 | 6.84 |
| CSc1ncc2ccc3c(C(N)=O)nn(CC4CCNCC4)c3c2n1 [Compound 17, 8-(methylsulfanyl)-1-(piperidin-4-ylmethyl)-1H-pyrazolo[4,3-h]quinazoline-3-carboxamide] | 5.81 | 6.80 | 8.05 |
| CN1CCN(c2ccc(Oc3ncc4c(n3)-c3c(c(C(N)=O)nn3C)CC4)cc2)CC1 [Compound 25, 1-methyl-8-[4-(4-methylpiperazin-1-yl)phenoxy]-4,5-dihydro-1H-pyrazolo[4,3-h]quinazoline-3-carboxamide] | < 5.00 | < 5.00 | 6.11 |
| CN1CCN(c2ccc(Oc3ncc4ccc5c(C(N)=O)nn(C)c5c4n3)cc2)CC1 [Compound 26, 1-methyl-8-[4-(4-methylpiperazin-1-yl)phenoxy]-1H-pyrazolo[4,3-h]quinazoline-3-carboxamide] | 6.28 | 6.06 | 7.48 |
| Cn1nc(C(N)=O)c2ccc3cnc(Oc4ccc(N5CCNCC5)cc4)nc3c21 [Compound 27, 1-methyl-8-[4-(piperazin-1-yl)phenoxy]-1H-pyrazolo[4,3-h]quinazoline-3-carboxamide] | 6.51 | 6.30 | 8.40 |
| CN1CCN(c2ccc(Oc3ncc4ccc5c(C(N)=O)nn(C)c5c4n3)c(Br)c2)CC1 [Compound 29, 8-[2-bromo-4-(4-methylpiperazin-1-yl)phenoxy]-1-methyl-1H-pyrazolo[4,3-h]quinazoline-3-carboxamide] | 6.12 | 5.62 | 7.68 |
| CN1CCN(c2ccc(Oc3ncc4ccc5c(C(N)=O)nn(C)c5c4n3)c(F)c2)CC1 [Compound 36, 8-[2-fluoro-4-(4-methylpiperazin-1-yl)phenoxy]-1-methyl-1H-pyrazolo[4,3-h]quinazoline-3-carboxamide] | 6.03 | 6.16 | 6.94 |
| CC(=O)c1cc(N2CCN(C)CC2)ccc1Oc1ncc2ccc3c(C(N)=O)nn(C)c3c2n1 [Compound 37, 8-[2-acetyl-4-(4-methylpiperazin-1-yl)phenoxy]-1-methyl-1H-pyrazolo[4,3-h]quinazoline-3-carboxamide] | – | < 6.00 | 5.39 |
| CC(=O)c1cc(N2CCNCC2)ccc1Oc1ncc2ccc3c(C(N)=O)nn(C)c3c2n1 [Compound 38, 8-[2-acetyl-4-(piperazin-1-yl)phenoxy]-1-methyl-1H-pyrazolo[4,3-h]quinazoline-3-carboxamide] | 6.51 | 6.28 | 7.70 |
| CN1CCN(c2ccc(Oc3ncc4ccc5c(C(N)=O)nn(CCO)c5c4n3)cc2)CC1 [Compound 46, 1-(2-hydroxyethyl)-8-[4-(4-methylpiperazin-1-yl)phenoxy]-1H-pyrazolo[4,3-h]quinazoline-3-carboxamide] | 6.17 | 5.89 | 7.09 |
| CN(C)c1ncc2ccc3c(C(N)=O)nn(C(C)(C)C)c3c2n1 [Compound 52, 1-tert-butyl-8-(dimethylamino)-1H-pyrazolo[4,3-h]quinazoline-3-carboxamide] | 6.06 | 7.68 | 7.89 |
| CSc1ncc2c(n1)-c1c(c(C(N)=O)nn1C1CCNCC1)CC2 [Compound 72, 8-(methylsulfanyl)-1-(piperidin-4-yl)-4,5-dihydro-1H-pyrazolo[4,3-h]quinazoline-3-carboxamide] | 5.75 | 6.50 | 6.57 |
| CSc1ncc2ccc3c(C(N)=O)nn(C)c3c2n1 [Compound 87, 1-methyl-8-(methylsulfanyl)-1H-pyrazolo[4,3-h]quinazoline-3-carboxamide] | 5.71 | 6.05 | 6.91 |
| CSc1ncc2ccc3c(C(N)=O)nn(C4CCNCC4)c3c2n1 [Compound 91, 8-(methylsulfanyl)-1-(piperidin-4-yl)-1H-pyrazolo[4,3-h]quinazoline-3-carboxamide] | 5.84 | 7.34 | 7.72 |
| CSc1ncc2ccc3c(C(N)=O)nn(C4CCCNC4)c3c2n1 (centres unmarked) [Compound 92, 8-(methylsulfanyl)-1-(piperidin-3-yl)-1H-pyrazolo[4,3-h]quinazoline-3-carboxamide] | 6.83 | 7.68 | 7.66 |
| CSc1ncc2ccc3c(C(N)=O)nn(CC4CCCNC4)c3c2n1 (centres unmarked) [Compound 94, 8-(methylsulfanyl)-1-(piperidin-3-ylmethyl)-1H-pyrazolo[4,3-h]quinazoline-3-carboxamide] | 6.27 | 6.51 | 7.10 |
| COc1ncc2ccc3c(C(N)=O)nn(C4CCNCC4)c3c2n1 [Compound 97, 8-methoxy-1-(piperidin-4-yl)-1H-pyrazolo[4,3-h]quinazoline-3-carboxamide] | 6.53 | 6.57 | 6.81 |
| NC(=O)c1nn(C2CCC(N)CC2)c2c1ccc1cnc(-c3ccccc3)nc12 (centres unmarked) [Compound 111, 1-(4-aminocyclohexyl)-8-phenyl-1H-pyrazolo[4,3-h]quinazoline-3-carboxamide] | – | 6.68 | 6.40 |
| Cn1nc(C(N)=O)c2c1-c1nc(N3CCCCC3)ncc1CC2 [Ref. Compound 1, 1-methyl-8-(piperidin-1-yl)-4,5-dihydro-1H-pyrazolo[4,3-h]quinazoline-3-carboxamide, reference compound] | – | < 5.00 | < 5.00 |
| CSc1ncc2c(n1)-c1c(c(C(N)=O)nn1C)CC2 [Ref. Compound 2, 1-methyl-8-(methylsulfanyl)-4,5-dihydro-1H-pyrazolo[4,3-h]quinazoline-3-carboxamide, reference compound] | – | < 5.00 | 6.00 |
